The values below come from US9913843B2, “Protein kinase C inhibitors and uses thereof” (Rigel Pharmaceuticals, Inc., priority 2012, dated 2018).

Like-named read-outs stand apart in the source and are kept apart here. Some results are limits rather than exact numbers.

The experiment deals with PKC mediated IL-2 production in human primary T cells. The experiment can be described thus: IL-2 ELISA, human primary T cell, anti CD3+CD28+ (whole cell functional assay for PKC mediated IL-2 production). The experiment is classed as cell-based. An outline of the steps:
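Primary human T cells (PBMC-derived, expanded on plate-bound anti-CD3/CD28 with IL-2, then IL-2-washed) were pre-incubated 1 h at 37 °C with compound, then stimulated on 1 μg/ml anti-CD3 plus 5 μg/ml anti-CD28. After 24 h at 37 °C, secreted IL-2 was measured by ELISA; counter assay used 0.5 ng/ml PMA plus 0.1 μM ionomycin (final).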
Background: An ELISA detects its analyte on a solid surface through an enzyme-linked reagent.

The mark [1] stands for this setting: 24 h, human primary T cells stimulated with anti-CD3 + anti-CD28, IL-2 by ELISA, read-out: IC50 for blocking IL-2 production.
The mark [2] stands for this setting: human primary T cells stimulated with anti-CD3 + anti-CD28, 24 h, IL-2 by ELISA, 8 pt, read-out: IL2 ELISA, Human primary T cell, anti-CD3 + CD28, 8 pt (IC50).

For the molecule `OCCOc1ccc(Nc2nccc(NC[C@@H]3CCCN4CCCC[C@H]34)n2)cc1-n1cnnn1` [Compound 141, 2-(4-((4-((((1S,9aR)-octahydro-2H-quinolizin-1-yl)methyl)amino)pyrimidin-2-yl)amino)-2-(1H-tetrazol-1-yl)phenoxy)ethan-1-ol], the IC50 (as a rule, the concentration that gives 50% inhibition) by setting is: under setting [1], below 30 µM; under setting [2], 3.55 µM.
On to `Cc1nnnn1-c1ccc(F)c(Nc2ncc(C(N)=O)c(NC[C@@H]3CCCN4CCCC[C@H]34)n2)c1` [Compound 127, 4-(((1S,9aR)-octahydro-1H-quinolizin-1-yl)methylamino)-2-(2-fluoro-5-(5-methyl-1H-tetrazol-1-yl)phenylamino)pyrimidine-5-carboxamide], for which the IC50 reads like this: under setting [1], below 30 µM; under setting [2], 0.824 µM.
On the same counts, the results for `COc1cc(Nc2ncc(OC)c(NC[C@@H]3CCCN4CCCC[C@H]34)n2)cc(-n2nnnc2C)c1` [Compound 78, N4-(((1S,9aR)-octahydro-1H-quinolizin-1-yl)methyl)-5-methoxy-N2-(3-methoxy-5-(5-methyl-1H-tetrazol-1-yl)phenyl)pyrimidine-2,4-diamine] are below 30 µM and 2.24 µM.
Turning to `COc1cc(Nc2ncc(F)c(NC[C@@H]3CCCN4CCCC[C@H]34)n2)cc(-n2nnn(C)c2=O)c1` [Compound 17, 1-(3-(4-(((1S,9aR)-octahydro-1H-quinolizin-1-yl)methylamino)-5-fluoropyrimidin-2-ylamino)-5-methoxyphenyl)-4-methyl-1H-tetrazol-5(4H)-one], the half-maximal inhibitory concentration (IC50) is below 30 µM under setting [1] and 0.405 µM under setting [2].
Turning to `Cn1nnn(-c2cc(Nc3ncc(Cl)c(NC[C@@H]4CCCN5CCCC[C@H]45)n3)c(F)cc2OC(C)(C)CO)c1=O` [Compound 153, 1-(5-((5-chloro-4-((((1S,9aR)-octahydro-2H-quinolizin-1-yl)methyl)amino)pyrimidin-2-yl)amino)-4-fluoro-2-((1-hydroxy-2-methylpropan-2-yl)oxy)phenyl)-4-methyl-1,4-dihydro-5H-tetrazol-5-one], the IC50 is below 30 µM under setting [1] and 0.832 µM under setting [2].
On the same counts, the results for `CN(C)c1cnc(Nc2cccc(C#N)c2)nc1NC[C@@H]1CCCN2CCCC[C@H]12` [Compound 92, 3-(4-(((1S,9aR)-octahydro-1H-quinolizin-1-yl)methylamino)-5-(dimethylamino)pyrimidin-2-ylamino)benzonitrile] are below 30 µM and 9.46 µM.
Consider `Fc1ccc(-n2nnnc2C2CC2)cc1Nc1ncc(F)c(NC[C@@H]2CCCN3CCCC[C@H]23)n1` [Compound 45, N2-(5-(5-cyclopropyl-1H-tetrazol-1-yl)-2-fluorophenyl)-5-fluoro-N4-(((1S,9aR)-octahydro-1H-quinolizin-1-yl)methyl)pyrimidine-2,4-diamine], for which the 50% inhibitory concentration (IC50) under setting [1] was below 30 µM and the IC50 under setting [2] amounted to 0.224 µM.
With `Cc1ccc(Nc2ncc(C#N)c(NC[C@@H]3CCCN4CCCC[C@H]34)n2)cc1-n1cnnn1` [Compound 117, 4-(((1S,9aR)-octahydro-1H-quinolizin-1-yl)methylamino)-2-(4-methyl-3-(1H-tetrazol-1-yl)phenylamino)pyrimidine-5-carbonitrile], the half-inhibitory concentration (IC50) is below 30 µM under setting [1] and 0.0117 µM under setting [2].
Taken in the same sequence, the figures for `CCN1C(=O)C(F)(F)Oc2cc(Nc3ncc(F)c(NC[C@@H]4CCCN5CCCC[C@H]45)n3)cnc21` [Compound 27, 7-(4-(((1S,9aR)-octahydro-1H-quinolizin-1-yl)methylamino)-5-fluoropyrimidin-2-ylamino)-4-ethyl-2,2-difluoro-2H-pyrido[3,2-b][1,4]oxazin-3(4H)-one] were below 30 µM and 0.652 µM.
For `COc1cnc(Nc2cc(-n3cnnn3)c(C3CC3)cc2F)nc1NC[C@@H]1CCCN2CCCC[C@H]12` [Compound 72, N2-(4-cyclopropyl-2-fluoro-5-(1H-tetrazol-1-yl)phenyl)-N4-(((1S,9aR)-octahydro-1H-quinolizin-1-yl)methyl)-5-methoxypyrimidine-2,4-diamine], the 50% inhibitory concentration (IC50) under setting [1] was below 30 µM and the IC50 under setting [2] is 1.27 µM.
Taken in the same sequence, the figures for `Cn1nnn(-c2cc(Nc3ncc(F)c(NC[C@@H]4CCCN5CCCC[C@H]45)n3)c(F)cc2C2CC2)c1=O` [Compound 3, 1-(5-(4-(((1S,9aR)-octahydro-1H-quinolizin-1-yl)methylamino)-5-fluoropyrimidin-2-ylamino)-2-cyclopropyl-4-fluorophenyl)-4-methyl-1H-tetrazol-5(4H)-one] were below 30 µM and 1.68 µM.
On the same counts, the results for `COc1cc(Nc2ncc(C)c(NC[C@@H]3CCCN4CCCC[C@H]34)n2)cc(OC)c1` [Compound 70, N4-(((1S,9aR)-octahydro-1H-quinolizin-1-yl)methyl)-N2-(3,5-dimethoxyphenyl)-5-methylpyrimidine-2,4-diamine] are below 30 µM and 1.53 µM.
On the same counts, the results for `COc1cc(Nc2ncc(F)c(NC[C@@H]3CCCN4CCCC[C@H]34)n2)cc(OC)c1` [Compound 11, 5-fluoro-N4-(((1S,9aR)-octahydro-1H-quinolizin-1-yl)methyl)-N2-(3,5-dimethoxyphenyl)pyrimidine-2,4-diamine] are below 30 µM and 1.08 µM.
With `Cc1nnnn1-c1cc(Nc2nccc(NC[C@@H]3CCCN4CCCC[C@H]34)n2)ccc1F` [Compound 49, N2-(4-fluoro-3-(5-methyl-1H-tetrazol-1-yl)phenyl)-N4-(((1S,9aR)-octahydro-1H-quinolizin-1-yl)methyl)pyrimidine-2,4-diamine], the half-maximal inhibitory concentration (IC50) is below 30 µM under setting [1] and 0.897 µM under setting [2].
Taken in the same sequence, the figures for `Cn1nnn(-c2cc(Nc3ncc(C#N)c(NC[C@@H]4CCCN5CCCC[C@H]45)n3)c(F)cc2OCC2COCCO2)c1=O` (stereo partly drawn) [Compound 131, 2-((4-((1,4-dioxan-2-yl)methoxy)-2-fluoro-5-(4-methyl-5-oxo-4,5-dihydro-1H-tetrazol-1-yl)phenyl)amino)-4-((((1S,9aR)-octahydro-2H-quinolizin-1-yl)methyl)amino)pyrimidine-5-carbonitrile] were below 30 µM and 1.3 µM.
As for `Cc1nnnn1-c1ccc(F)c(Nc2ncc(Cl)c(NC[C@@H]3CCCN4CCCC[C@H]34)n2)c1` [Compound 36, 5-chloro-N2-(2-fluoro-5-(5-methyl-1H-tetrazol-1-yl)phenyl)-N4-(((1S,9aR)-octahydro-1H-quinolizin-1-yl)methyl)pyrimidine-2,4-diamine], the IC50 was below 30 µM under setting [1] and 0.112 µM under setting [2].
On the same counts, the results for `COc1cnc(Nc2cc(C#N)c(C3CC3)cc2F)nc1NC[C@@H]1CCCN2CCCC[C@H]12` [Compound 82, 5-(4-(((1S,9aR)-octahydro-1H-quinolizin-1-yl)methylamino)-5-methoxypyrimidin-2-ylamino)-2-cyclopropyl-4-fluorobenzonitrile] are below 30 µM and 1.31 µM.
For the molecule `CN(C)c1cnc(Nc2ccc(C3CC3)c(C#N)c2)nc1NC[C@@H]1CCCN2CCCC[C@H]12` [Compound 94, 5-(4-(((1S,9aR)-octahydro-1H-quinolizin-1-yl)methylamino)-5-(dimethylamino)pyrimidin-2-ylamino)-2-cyclopropylbenzonitrile], the IC50 was below 30 µM under setting [1] and 2.57 µM under setting [2].
As to `CN(C)c1cnc(Nc2cc(-n3cnnn3)c(C3CC3)cc2F)nc1NC[C@@H]1CCCN2CCCC[C@H]12` [Compound 85, N2-(4-cyclopropyl-2-fluoro-5-(1H-tetrazol-1-yl)phenyl)-N4-(((1S,9aR)-octahydro-1H-quinolizin-1-yl)methyl)-N5,N5-dimethylpyrimidine-2,4,5-triamine], the half-maximal inhibitory concentration (IC50) by setting is: under setting [1], below 30 µM; under setting [2], 3.31 µM.
On the same counts, the results for `COCCOc1cc(F)c(Nc2ncc(C#N)c(NC[C@@H]3CCCN4CCCC[C@H]34)n2)cc1-n1nnn(C)c1=O` [Compound 129, 2-((2-fluoro-4-(2-methoxyethoxy)-5-(4-methyl-5-oxo-4,5-dihydro-1H-tetrazol-1-yl)phenyl)amino)-4-((((1S,9aR)-octahydro-2H-quinolizin-1-yl)methyl)amino)pyrimidine-5-carbonitrile] are below 30 µM and 1.34 µM.
On the same counts, the results for `COc1cc(F)cc(Nc2ncc(F)c(NC[C@@H]3CCCN4CCCC[C@H]34)n2)c1` [Compound 21, 5-fluoro-N2-(3-fluoro-5-methoxyphenyl)-N4-(((1S,9aR)-octahydro-1H-quinolizin-1-yl)methyl)pyrimidine-2,4-diamine] are below 30 µM and 0.702 µM.
On the same counts, the results for `N#Cc1cnc(Nc2ccc(OCCO)c(-n3cnnn3)c2)nc1NC[C@@H]1CCCN2CCCC[C@H]12` [Compound 140, 2-((4-(2-hydroxyethoxy)-3-(1H-tetrazol-1-yl)phenyl)amino)-4-((((1S,9aR)-octahydro-2H-quinolizin-1-yl)methyl)amino)pyrimidine-5-carbonitrile] are below 30 µM and 0.0276 µM.
Take `Cc1cnc(Nc2cc(-n3nnnc3C)ccc2F)nc1NC[C@@H]1CCCN2CCCC[C@H]12` [Compound 63, N2-(2-fluoro-5-(5-methyl-1H-tetrazol-1-yl)phenyl)-N4-(((1S,9aR)-octahydro-1H-quinolizin-1-yl)methyl)-5-methylpyrimidine-2,4-diamine]: the IC50 was below 30 µM under setting [1] and 1.16 µM under setting [2].
On to `Cc1ccc(Nc2ncc(N(C)C)c(NC[C@@H]3CCCN4CCCC[C@H]34)n2)cc1-n1cnnn1` [Compound 86, N4-(((1S,9aR)-octahydro-1H-quinolizin-1-yl)methyl)-N5,N5-dimethyl-N2-(4-methyl-3-(1H-tetrazol-1-yl)phenyl)pyrimidine-2,4,5-triamine], for which the IC50 under setting [1] is below 30 µM and the IC50 under setting [2] stood at 11 µM.
